{"source": "patent US10513519B2", "about": "“Solid forms of (1S,4S)-4-(2-(((3S,4R)-3-fluorotetrahydro-2H-pyran-4-yl)amino)-8-((2,4,6-trichlorophenyl)amino)-9H-purin-9-yl)-1-methylcyclohexane-1-carboxamide and methods of their use” (Signal Pharmaceuticals, LLC, priority 2016, dated 2019)", "key": {"[1]": {"tested_on": "surface PD-L1 in cancer cell lines", "assay": "Cell surface PD-L1 by FACS", "type": "cell-based", "conditions": "multiple cancer cell lines, 48 h", "experimental": "The effect of Compound 1 was evaluated on PD-L1 expression levels. Cells were cultured in presence or absence of Compound 1 for indicated time before expression levels of PD-L1, DUSP4 and α-tubulin or α-actin were measured by Western blot. To detect surface levels of PD-L1, cells were treated with DMSO or Compound 1 at indicated concentrations for 48 h and cell surface expression of PD-L1 was detected using flow cytometry analysis (FACS) with an APC-labeled antibody to PD-L1 (clone 29E.1A3.; BioLegend, San Diego, Calif.). Geometric mean of PD-L1 positive cells was determined by FlowJo 10 (Treestar, Ashland, Oreg.)."}, "cancer cell lines": {"tested_on": "cancer cell lines", "assay": "Multiplexed cytotoxicity assay: apoptosis (activated caspase-3 induction)", "type": "cell-based", "conditions": "KLE, Female GU, Uterus; 72 h", "experimental": "Cells are grown in RPMI1640, 10% FBS, 2 mM L-alanyl-L-Glutamine, 1 mM Na pyruvate or a special medium in a humidified atmosphere of 5% CO2 at 37° C. Cells are seeded into 384-well plates and incubated in a humidified atmosphere of 5% CO2 at 37° C. Compounds are added 24 h post cell seeding. At the same time, a time zero untreated cell plate is generated. After a 72 hour incubation period, cells are fixed and stained with fluorescently labeled antibodies and nuclear dye to allow visualization of nuclei, apoptotic cells and mitotic cells. Apoptotic cells are detected using an anti-active caspase-3 antibody. Mitotic cells are detected using an anti phospho-histone-3 antibody. […] Automated fluorescence microscopy was carried out using a Molecular Devices ImageXpress Micro XL high-content imager, and images are collected with a 4× objective. […]\nIn another experiment, cells were grown in RPMI1640, 10% FBS, 2 mM L-alanyl-L-Glutamine, 1 mM Na pyruvate or a special medium in a humidified atmosphere of 5% CO2 at 37° C. […] Apoptotic cells were detected using an anti-active caspase-3 antibody. Mitotic cells were detected using an anti phospho-histone-3 antibody. […] Automated fluorescence microscopy was carried out using a Molecular Devices ImageXpress Micro XL high-content imager, and images were collected with a 4× objective. […]"}, "Colo 205 xenograft": {"tested_on": "Colo 205 xenograft", "assay": "Colo 205 subcutaneous colorectal xenograft model", "type": "in vivo, SCID mice", "experimental": "For xenograft model studies human cancer cell lines were injected into SCID (severe combined immunodeficiency) mice. Cancer cell lines were propagated in culture in vitro. Tumor bearing animals were generated by injecting precisely determined numbers of cells into mice. Following inoculation of animals, the tumors were allowed to grow to a certain size prior to randomization. The mice bearing xenograft tumors ranging between pre-determined sizes were pooled together and randomized into various treatment groups. A typical efficacy study design involved administering one or more compounds at various dose levels to tumor-bearing mice. Additionally, reference chemotherapeutic agents (positive control) and negative controls were similarly administered and maintained. Tumor measurements and body weights were taken over the course of the study.\nIn the first experiment Compound 1 was administered orally, QD for 15 days at 0.2, 1, 5, 10, and 15 mg/kg."}, "pRSK1 S380 in AGS cells": {"tested_on": "pRSK1 S380 in AGS cells", "assay": "pRSK1 S380 Mesoscale assay in AGS", "type": "cell-based", "conditions": "Homo sapiens, 2 h treatment, n = 3", "experimental": "Cancer cells were seeded at a density of 25,000 cells per well in 96-well tissue culture plates and incubated at 37° C. in a CO2 incubator overnight. After treatment with Compound 1 at 37° C. for 2 h, the cells were lysed with Mesoscale lysis buffer and pRSK S380 levels in each lysate were measured via Mesoscale ELISA technology."}, "SW48 xenograft": {"tested_on": "SW48 xenograft", "assay": "β-catenin mutant SW48 colorectal xenograft model", "type": "in vivo, SCID mice", "description": "Female SCID mice were inoculated with 2×10^6 SW48 tumor cells into the right flank. Mice were randomized into treatment groups (n=10/group) at the time of treatment initiation. Test article treatment started on Day 10 when the tumors were approximately 110 and 105 mm^3. (FIGS. 202A-202B) Black dotted line is the tumor volume at the initiation of dosing. Graph on the left is a dose-response study. Graph on the right is a time to progression study where animals were maintained on drug during the course of the study. Dotted line is the tumor volume on Day 28 when the vehicle control group was terminated."}}, "data": [{"compound": "C[C@]1(C(N)=O)CC[C@@H](n2c(Nc3c(Cl)cc(Cl)cc3Cl)nc3cnc(N[C@@H]4CCOC[C@H]4F)nc32)CC1", "note": "[Compound 1, cis-4-[2-{[(3S,4R)-3-fluorooxan-4-yl]amino}-8-(2,4,6-trichloroanilino)-9H-purin-9-yl]-1-methylcyclohexane-1-carboxamide]", "values": [{"measurement": "surface PD-L1 levels", "setting": "[1]", "result": "inhibited"}, {"measurement": "CalX2", "setting": "cancer cell lines", "result": 10, "unit": "µM"}, {"measurement": "antitumor activity", "setting": "Colo 205 xenograft; orally, QD for 15 days at 0.2, 1, 5, 10, and 15 mg/kg", "result": "Dose-dependent antitumor activity"}, {"measurement": "antitumor activity", "setting": "Colo 205 xenograft; scheduling study (BID dosing)", "result": "Dose-dependent antitumor activity"}, {"measurement": "IC50", "setting": "pRSK1 S380 in AGS cells", "result": 20, "unit": "nM"}, {"measurement": "antitumor activity", "setting": "SW48 xenograft", "result": "Significant antitumor activity"}]}]}
